Test results taken from article PMC5748433, “Study on the effect of EMD386088, a 5-HT6 receptor partial agonist, in enhancing the anti-immobility action of some antidepressants in rats” (Naunyn-Schmiedeberg's Archives of Pharmacology, 2017).

Test system: rats
Assay: Open field (OF) test in rats, locomotor/exploratory activity
Assay type: in vivo, rat
Conditions: 5-min session, mean ± SEM
Experimental: All drugs were dissolved in distilled water immediately before administration in a volume of 2 mL/kg. All the compounds were administered intraperitoneally (i.p.). […] Control animals received vehicle according to the same schedule.
The experiment was performed using Motor Monitor System (Campden Instruments, Ltd., UK) consisted of two SmartFrame Open Field stations (40 × 40 × 38 cm) with 16 × 16 beams, located in sound attenuating chambers and connected to PC software by control chassis. Individual vehicle- or drug-injected animals were gently placed in the center of the station. An automated motor monitor system recorded ambulation (the number of crossings in X and Y axis), the number of rearing episodes, and total distance covered by a rat for 5 min.
The data of behavioral studies were evaluated using two-way analysis of variance (ANOVA) followed by Bonferroni’s post hoc test, p < 0.05 was considered significant.

[1] = 10 mg/kg i.p. (s-citalopram 30 min, moclobemide and bupropion 60 min before test)
[2] = 15 mg/kg i.p. 30 min before test

Row | SMILES | Exploratory activity Ambulation X [1] | Exploratory activity Ambulation Y [1] | Exploratory activity Rearings [1] | Exploratory activity Total distance (cm) [1] | Exploratory activity Ambulation Y [2] | Exploratory activity Rearings [2] | Exploratory activity Total distance (cm) [2]
1 | CC(NC(C)(C)C)C(=O)c1cccc(Cl)c1 (centres unmarked) [bupropion] | 284 ± 31 | 301 ± 35 | 83 ± 9 | 3083 ± 229 cm |  |  | 
2 | CN(C)CCC[C@@]1(c2ccc(F)cc2)OCc2cc(C#N)ccc21 [s-citalopram] | 197 ± 15 | 179 ± 19 | 64 ± 12 |  |  |  | 
3 | O=C(NCCN1CCOCC1)c1ccc(Cl)cc1 [moclobemide] | 200 ± 26 | 192 ± 23 | 62 ± 3 | 2160 ± 183 cm |  |  | 
4 | CN(C)CCCN1c2ccccc2CCc2ccccc21 [imipramine] |  |  |  |  | 203 ± 41 | 54 ± 3 | 2212 ± 332 cm
